Tests used:
[1] = test system: rat MAPCs; assay: Endothelial differentiation of rat MAPCs (qRT-PCR); format: cell-based; settings: Shh-antibody 0.5 micrograms/ml, cyclopamine 10 micromolar
Method: (§1) Glass 4-well chambers with were coated with 1 μg/ml human fibronectin (Sigma, F0895) for about 30 minutes to about 1 hour in the 37° C. incubator. The cells were collected (with the use of 0.05% trypsin), counted and resuspended at 120K/ml in mouse MAPC culture media (see above). The fibronectin was taken off and the cells were seeded (1 ml per well) (=Day 0). The cells were then incubated at 37° C., 5% O2 overnight. […] The media was changed 50% (using differentiation media) on day 4 and from then on, media changed 50% every other day. For rat cells, the differentiation media contained 2% serum.

[2] = test system: hMAPCs; assay: Blocking of Patched and Notch pathways during hMAPC-EC differentiation; format: cell-based, human; settings: hMAPC-ECs, 14 days, exogenous VEGF present, cyclopamine 5 μM; for expression of arterial EC markers Hey-2, EphrinB1 and EphrinB2: L-685,458 1 μM
Method: For real time RT-PCR Syber Green and Taq Man® methods were used as described (Hong et al., 2004). GAPDH was used as a housekeeping control. […] Primers used for both RT-PCR and real time PCR are shown below in Table 2.
Blocking of Patched and Notch pathways was performed using cyclopamine Watkins et al., 2003) (Biomol) at 5 μM (added every 4-5 days with media change) and 1 μM of esecretase inhibitor L-685,458 (Bachem) (Dahlqvist et al., 2003), respectively. Exogenous VEGF was present in the media for the blocking experiments (no exogenous Shh or Dll-4).

[3] = test system: mouse MAPCs; assay: Endothelial differentiation of mouse MAPCs (qRT-PCR); format: cell-based; settings: Shh-antibody 0.5 micrograms/ml, cyclopamine 10 micromolar
Method: as §1

[4] = test system: murine MAPCs; settings: about 10 ng/mL LIF added to PDGF-BB and EGF; cited from earlier work
[5] = test system: human MAPCs; settings: about 10 ng/mL LIF, till 25 cell doublings; cited from earlier work
[6] = test system: hMAPCs; assay: Smooth muscle differentiation from hMAPCs; format: cell-based, human; settings: hMAPCs treated for 6 days, Q-RT-PCR and immunofluorescence
Method: Smooth muscle differentiation: hMAPCs were plated at 1×10^3 cells/cm^2 in growth media (58% low-glucose DMEM (Gibco BRL), 40% MCDB-201 (Sigma), 2% fetal calf serum (FCS) (Biochrom), ITS+1 (Sigma), 10^−8 M dexamethasone (Sigma), 10^−8 M ascorbic acid 2-phosphate (Sigma), 100 U penicillin, 1000 U streptomycin (Gibco BRL) and 10 ng/mL each of PDGF-BB and EGF during 24 hours and then media was exchanged with the same basal media, without FCS, EGF but now with 10 ng/ml TGF-β1. Media was changed every 4-5 days.

[7] = test system: hMAPC; assay: Lymphatic differentiation of hMAPC (real time PCR of Prox-1, Lyve-1, podoplanin); format: cell-based, human; settings: compared with VEGF165 alone
Method: Arterial and/or venous differentiation was induced by addition of different combinations of the following growth factors: VEGF121 was used at 100 ng/ml and VEGF165 in different combinations with Delta-like 4 (Dll-4), Jagged-1, or Shh (all from R&DSystems) all at 100 ng/ml. Lymphatic differentiation was induced by addition of 100 ng/ml VEGF-C(R&DSystems) and 20 ng/ml bFGF (Sigma). Except for VEGF121, which was added alone, the other factors were added at the same time as VEGF165 in the various described combinations.
For real time RT-PCR Syber Green and Taq Man® methods were used as described (Hong et al., 2004). GAPDH was used as a housekeeping control. Results are presented as fold increase in comparison with the expression of the gene in undifferentiated cells or as percentage of positive control (cord blood derived venous and arterial ECs) (Jaffe et al., 1973; Neuhaus et al., 2003). Primers used for both RT-PCR and real time PCR are shown below in Table 2.

**Q.** Which “arterial component in the cell cultures” value [1] does the source give for `CC1=C2C[C@H]3[C@@H](CC=C4C[C@@H](O)CC[C@@]43C)[C@@H]2CC[C@]12O[C@@H]1C[C@H](C)CN[C@H]1[C@H]2C` [cyclopamine] here?
**A.** decrease the arterial component

**Q.** What about the “expression of the venous marker EphB4” value [2] of the same molecule?
**A.** slightly increased

**Q.** And the “expression of arterial EC markers Hey-2, EphrinB1 and EphrinB2” value [2]?
**A.** significantly decreased

**Q.** What about the “arterial component in the cell cultures” value [3] of the same molecule?
**A.** decrease the arterial component

**Q.** With `CC(C)C[C@H](NC(=O)[C@H](Cc1ccccc1)C[C@@H](O)[C@H](Cc1ccccc1)NC(=O)OC(C)(C)C)C(=O)N[C@@H](Cc1ccccc1)C(N)=O` [γ-secretase inhibitor, L-685,458] as the molecule, how does the “expression of arterial EC markers Hey-2, EphrinB1 and EphrinB2” value [2] read?
**A.** even more pronounced attenuation

**Q.** With “LIF: leukemia inhibitory factor, culture supplement” as the molecule, how does the cell growth [4] read?
**A.** significantly enhanced cell growth

**Q.** What about the short-term cell growth [5] of the same molecule?
**A.** did not affect short-term cell growth

**Q.** For “TGF-β1: growth factor, 10 ng/ml, used for smooth muscle differentiation”, which “expression of SMC markers” value [6] is on record?
**A.** upregulated expression of SMC markers

B1: VEGF-C: VEGF family growth factor (R&DSystems) used for lymphatic differentiation (protein, UniProt P49767 112-227, looked up)
Vascular endothelial growth …: AHYNTEILKSIDNEWRKTQCMPREVCIDVGKEFGVATNTFFKPPCVSVYRCGGCCNSEGLQCMNTSTSYLSKTLFEITVPLSQGPKPVTISFANHTSCRCMSKLDVYRQVHSIIRR
**Q.** Which “expression of lymphatic genes Prox-1, Lyve-1 and podoplanin” value [7] does the source give for B1 here?
**A.** does not enhance expression of these genes more than VEGF165 alone

Source: patent publication US20090104159A1, “Vascular/Lymphatic Endothelial Cells” (priority 2005, published 2009)
